According to patent publication US7381739B2, “2,4-substituted indoles and methods of use” (Roche Palo Alto LLC, priority 2002, dated 2008):
Where two headings read alike, the source gives them in different places.

Molecular target: T1, recombinant human 5-HT6 receptor (Homo sapiens, UniProt P50406)
T1 construct: expressed in transfected cells
Experiment: in vitro radioligand binding, [3H]LSD competition in HEK293 cell membranes
Procedure: The binding activity of compounds of this invention in vitro was determined as follows. Duplicate determinations of ligand affinity are made by competing for binding of [^3H]LSD in cell membranes derived from HEK293 cells stably expressing recombinant human 5-HT6 receptor.
All determinations were made in assay buffer containing 50 mM Tris-HCl, 10 mM MgSO4, 0.5 mM EDTA, 1 mM ascorbic acid, pH 7.4 at 37° C., in a 250 microliter reaction volume. Assay tubes containing [^3H] LSD (5 nM), competing ligand, and membrane were incubated in a shaking water bath for 60 min. at 37° C., filtered onto Packard GF-B plates (pre-soaked with 0.3% PEI) using a Packard 96 well cell harvester and washed 3 times in ice cold 50 mM Tris-HCl. Bound [^3H] LSD was determined as radioactive counts per minute using Packard TopCount.
Displacement of [3H]LSD from the binding sites was quantified by fitting concentration-binding data to a 4-parameter logistic equation:
[formula] where Hill is the Hill slope, [ligand] is the concentration of competing radioligand and IC50 is the concentration of radioligand producing half-maximal specific binding of radioligand. The specific binding window is the difference between the Bmax and the basal parameters.

[1] = [3H]LSD (5 nM) displacement, membranes of HEK293 cells stably expressing recombinant human 5-HT6 receptor, pH 7.4, 37° C., 60 min, read-out: pKi (converted)

T1 sequence (P50406 whole entry): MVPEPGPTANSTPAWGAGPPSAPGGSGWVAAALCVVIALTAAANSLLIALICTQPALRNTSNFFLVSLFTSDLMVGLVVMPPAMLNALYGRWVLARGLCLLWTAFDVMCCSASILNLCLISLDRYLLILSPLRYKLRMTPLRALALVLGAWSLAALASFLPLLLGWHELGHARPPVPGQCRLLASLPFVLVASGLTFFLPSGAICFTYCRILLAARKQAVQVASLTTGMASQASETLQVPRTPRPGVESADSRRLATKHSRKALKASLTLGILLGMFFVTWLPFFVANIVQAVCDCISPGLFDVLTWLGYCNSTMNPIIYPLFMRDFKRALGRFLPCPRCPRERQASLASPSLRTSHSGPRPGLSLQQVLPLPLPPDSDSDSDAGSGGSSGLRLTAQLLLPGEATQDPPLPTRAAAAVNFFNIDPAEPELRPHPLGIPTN

| Ki [1] | Structure (SMILES) | Ki |
| --- | --- | --- |
| 0.126 nM | CN1CCN(c2cccc3[nH]c(S(=O)(=O)c4ccccc4F)cc23)CC1 [Compound 12, 2-(2-Fluoro-benzenesulfonyl)-4-(4-methyl-piperazin-1-yl)-1H-indole] | – |
| 0.126 nM | CN1CCN(c2cccc3[nH]c(S(=O)(=O)c4ccccc4)cc23)CC1 [Compound 2, 2-Benzenesulfonyl-4-(4-methyl-piperazin-1-yl)-1H-indole] | – |

More lines, now with the values behind:

| Structure (SMILES) | Ki [1] | Ki |
| --- | --- | --- |
| CC1CN(c2cccc3[nH]c(S(=O)(=O)c4ccccc4)cc23)CC(C)N1 (stereo not drawn) [Compound 9, 2-Benzenesulfonyl-4-(3,5-dimethyl-piperazin-1-yl)-1H-indole] | 0.794 nM | – |
| Cn1c(S(=O)(=O)c2ccccc2)cc2c(N3CCNCC3)cccc21 [Compound 5, 2-Benzenesulfonyl-1-methyl-4-piperazin-1-yl-1H-indole] | – | 0.2 nM |
| Cn1c(S(=O)(=O)c2cccc(Br)c2)cc2c(N3CCNCC3)cccc21 [Compound 14, 2-(3-Bromo-benzenesulfonyl)-1-methyl-4-piperazin-1-yl-1H-indole] | – | 0.501 nM |
| O=S(=O)(c1ccccc1)c1cc2c(C3CCNCC3)cccc2[nH]1 [Compound 15, 2-Benzenesulfonyl-4-piperidin-4-yl-1H-indole] | 0.631 nM | – |
